# Assay: Comment Code material properties: vapor pressure, ClogP, probability of ingredient color instability, odor detection threshold, melamine formaldehyde PMC headspace response ratio and leakage, liquid dish neat product liquid-air partition coefficient
# Type: physicochemical
# Conditions: letter codes A-L: vapor pressure, ClogP, probability of ingredient color instability, odor detection threshold, PMC headspace response ratio, PMC leakage, liquid dish liquid-air partition coefficient; Table 1 materials with at least one MORV from 1 to 5
row,Comment Code,Compound
1,CEFGJ,COc1cc(CCC(C)=O)ccc1O [Material 1146]
2,DEFHJKL,CC1=CC2=C(C(C)C)CC[C@@H](C)[C@H]2CC1 [Material 1147]
